Structures can show the parent of a compound that is named as a salt. Where two headings read alike, the source gives them in different places. Where only a bound is given, the exact number is not on record here.

Common to all, as to format: in vivo
Data set [1] in a line: Pharmacokinetic experiment in rats, LC/MS/MS. The note with it: male, rat, whole blood, SD rats; for AUC: read-out: Area under the curve (AUC, ng/mL.h); for half-life: read-out: Half life (T1/2, h) (converted); for bioavailability: p.o. 10 mg/kg vs i.v. 2 mg/kg, read-out: Bioavailability (F%); for Cmax: read-out: Blood concentration (Cmax, ng/mL). On the procedure:
Taking SD rats as an example, the drug concentrations in the plasma of rats at different times after i.g. and i.v. administration of compounds of Examples 1, 5, 6, 8, 12, 13, 15, 18, 19, 22, 25, 27 and 29, respectively, were determined by the liquid chromatography-tandem mass spectrometry (LS/MS/MS) method, and the relevant pharmacokinetic parameters were calculated to evaluate the pharmacokinetic properties of example compounds of the present invention in rats.
Healthy adult SD rats, SPF grade, male, purchased from Sippe-Bk Lab Animal Co., Ltd., Shanghai, license number SCXK (Shanghai) 2018-0006, animal certificate number: 20180006006321.
A certain amount of compound was weighed, dissolved in 5% dimethyl sulfoxide (DMSO), subjected to vortex and sonication, added with 0.5% sodium carboxymethyl cellulose (CMC-Na), and sonicated, to prepare a homogeneous solution.
Before administration and 5 min, 15 min, 0.5 h, 1 h, 2 h, 4 h, 6 h, 8 h and 24 h after administration, orbital blood was collected, 0.2 milliliters (mL) of blood being collected each time, and placed in an anticoagulant tube, mixed well, and stored in a −20° C. refrigerator for later use.
The content of the compound in rat whole blood was determined by liquid chromatography-tandem mass spectrometry (LS/MS/MS).
The pharmacokinetic parameters of the compounds after administration were calculated using the non-compartmental model of WinNonLin5.3 software.

Data set [2] in a line: Acute toxicity test in mice, single dose, 14 days observation. The note with it: both sexes, mouse, in vivo; ICR mice, single administration; read-out: median lethal dose (LD50). The procedure: (§1) This experiment aims to test the toxic effects of the compounds in mice.
(§2) ICR mice, SPF grade, 6-8 weeks old, half male and half […], purchased from Sippe-Bk Lab Animal Co., Ltd., Shanghai, license number SCXK (Shanghai) 2018-0006, animal certificate number: 20180006010983.
(§3) ICR mice were administered different doses of compounds at a single time, and were continuously observed for 14 days. The animal death, poisoning reaction, body weight change, diet, appearance, behavior, etc. were recorded. At the end point, the animals were dissected, and the organs were taken for histopathological examination.

Data set [3] has as its system ICR mice. The data set is described as above. The note with it: within 14 days from administration. The procedure: as §1, §2, §3

With `Cc1c(NC(=O)c2nc3c(s2)CN(C)CC3)cncc1-c1cccc(NC(=O)c2nc3c(n2C)CCN(CC(C)O)C3)c1C` (stereo not drawn) [Example 6, N-(5-(3-(5-(2-hydroxypropyl)-1-methyl-4,5,6,7-tetrahydro-1H-imidazo[4,5-c]pyridine-2-carboxamido)-2-methylphenyl)-4-methylpyridin-3-yl)-5-methyl-4,5,6,7-tetrahydrothiazolo[5,4-c]pyridine-2-carboxamide], in data set [1] (iv, i.v., 2 mg/kg), the AUC is 676 ng·h/mL and the half-life is 1.36 h. The bioavailability in data set [1] (po) worked out at 62%. In data set [1] (po, p.o. (i.g.), 10 mg/kg), the AUC is 2100 ng·h/mL and the Cmax is 389 ng/mL.

`Cc1c(NC(=O)c2nc3c(s2)CN(C[C@H](C)O)CC3)cccc1-c1cccc(-c2nc3cc(CN4CC[C@@H](C(=O)O)C4)cnc3o2)c1C` [Example 22, (R)-1-((2-(3′-(5-((S)-2-hydroxypropyl)-4,5,6,7-tetrahydrothiazolo[5,4-c]pyridine-2-carboxamido)-2,2′-dimethyl-[1,1′-biphenyl]-3-yl)oxazolo[5,4-b]pyridin-6-yl)methyl)pyrrolidine-3-carboxylic acid]: in data set [1] (iv, i.v., 2 mg/kg), the AUC was determined as 578 ng·h/mL and the half-life was 1.46 h. The bioavailability in data set [1] (po) was 51%. Also, in data set [1] (po, p.o. (i.g.), 10 mg/kg), the AUC is 1470 ng·h/mL and the Cmax amounted to 488 ng/mL.

In the case of `Cc1c(NC(=O)c2nc(CNCCO)cs2)cccc1-c1cccc(NC(=O)c2ccc(CNCCO)cn2)c1Cl` [Example 2], in data set [2], the LD50 at 14 days is over 1000 mg/kg. Besides, the “body weight and behavior compared with control group” value in data set [3] is “no abnormal body weight or behavior”.

For `Cc1c(NC(=O)c2nc3c(n2C)CCNC3)cccc1-c1cncc(-c2nc3cc(CN4CC[C@@H](C(=O)O)C4)cc(Cl)c3o2)c1C` [Example 19, (R)-1-(((7-chloro-2-(4-methyl-5-(2-methyl-3-(1-methyl-4,5,6,7-tetrahydro-1H-imidazole)[4,5-c]pyridine-2-carboxamido)phenyl)pyridin-3-yl)benzo[d]oxazol-5-yl)methyl)pyrrolidine-3-carboxylic acid], in data set [1] (iv, i.v., 2 mg/kg), the AUC came to 560 ng·h/mL and the half-life is 2.21 h. Moreover, the bioavailability in data set [1] (po) amounted to 65%. In data set [1] (po, p.o. (i.g.), 10 mg/kg), the AUC is 1820 ng·h/mL and the Cmax came out at 407 ng/mL. The LD50 at 14 days in data set [2] is over 1000 mg/kg. Further, in data set [3], the “body weight and behavior compared with control group” value is recorded as “no abnormal body weight or behavior”.

Take `Cc1c(NC(=O)c2nc3c(s2)CN(C)CC3)cccc1-c1cncc(-c2nc3cc(CN4CC[C@@H](C(=O)O)C4)cc(C#N)c3o2)c1C` [Example 25]: in data set [1] (iv, i.v., 2 mg/kg), the AUC stood at 612 ng·h/mL and the half-life is 2.35 h. For the same molecule, the bioavailability in data set [1] (po) amounted to 60%. In data set [1] (po, p.o. (i.g.), 10 mg/kg), the AUC is 1840 ng·h/mL and the Cmax came out at 435 ng/mL.

With `Cc1c(NC(=O)c2nc3c(n2C)CCN(C[C@H](C)O)C3)cccc1-c1cncc(-c2nc3cc(CN4CC[C@@H](C(=O)O)C4)cc(Cl)c3o2)c1C` [Example 12], the AUC in data set [1] (iv, i.v., 2 mg/kg) turned out to be 586 ng·h/mL. In addition, the bioavailability in data set [1] (po) was 60%. For the same molecule, in data set [1] (po, p.o. (i.g.), 10 mg/kg), the AUC was found to be 1760 ng·h/mL and the Cmax was determined as 442 ng/mL.

In the case of `Cc1c(NC(=O)c2nc3c(s2)CN(C)CC3)cncc1-c1cccc(NC(=O)c2nc3c(n2C)CCN(C)C3)c1C` [Example 5, N-(5-(3-(1,5-dimethyl-4,5,6,7-tetrahydro-1H-imidazo[4,5-c]pyridine-2-carboxamido)-2-methylphenyl)-4-methylpyridin-3-yl)-5-methyl-4,5,6,7-tetrahydrothiazolo[5,4-c]pyridine-2-carboxamide], in data set [1] (iv, i.v., 2 mg/kg), the AUC is 612 ng·h/mL and the half-life was 2.5 h. Also, in data set [1] (po), the bioavailability was found to be 68%. In addition, in data set [1] (po, p.o. (i.g.), 10 mg/kg), the AUC stood at 2080 ng·h/mL and the Cmax worked out at 432 ng/mL.

Regarding `Cc1c(NC(=O)c2nc3c(n2C)CCN(C)C3)cncc1-c1cccc(-c2nc3cc(CN4CC[C@@H](C(=O)O)C4)cc(Cl)c3o2)c1C` [Example 21], the LD50 at 14 days in data set [2] was over 1000 mg/kg. For the same molecule, in data set [3], the “body weight and behavior compared with control group” value is given as “no abnormal body weight or behavior”.

As to `Cc1c(NC(=O)c2nc3c(n2C)CCN(C)C3)cccc1-c1cncc(-c2nc3cc(CN4CC[C@@H](C(=O)O)C4)cc(Cl)c3o2)c1C` [Example 13], in data set [1] (iv, i.v., 2 mg/kg), the AUC is 630 ng·h/mL and the half-life was 1.43 h. Also, the bioavailability in data set [1] (po) came out at 54%. Further, in data set [1] (po, p.o. (i.g.), 10 mg/kg), the AUC amounted to 1700 ng·h/mL and the Cmax worked out at 431 ng/mL. The LD50 at 14 days in data set [2] was over 1000 mg/kg. Further, the “body weight and behavior compared with control group” value in data set [3] is reported as “no abnormal body weight or behavior”.

With `Cc1c(NC(=O)c2nc3c(n2C)CCN(C[C@H](C)O)C3)cncc1-c1cccc(NC(=O)c2nc3c(n2C)CCN(C(C)C)C3)c1Cl` [Example 24, (S)—N-(2-chloro-3-(5-(5-(2-hydroxypropyl)-1-methyl-4,5,6,7-tetrahydro-1H-imidazo[4,5-c]pyridine-2-carboxamido)-4-methylpyridin-3-yl)phenyl)-5-isopropyl-1-methyl-4,5,6,7-tetrahydro-1H-imidazo[4,5-c]pyridine-2-carboxamide], the LD50 at 14 days in data set [2] was over 1000 mg/kg. The “body weight and behavior compared with control group” value in data set [3] is “no abnormal body weight or behavior”.

`Cc1c(NC(=O)c2nc(CNCCO)cn2C)cccc1-c1cccc(NC(=O)c2ccc(CNCCO)cn2)c1Cl` [Example 1, N-(2-chloro-3′-(4-(((2-hydroxyethyl)amino)methyl)-1-methyl-1H-imidazole-2-carboxamido)-2′-methyl-[1,1′-biphenyl]-3-yl)-5-(((2-hydroxyethyl)amino)methyl)picolinamide]: in data set [1] (iv, i.v., 2 mg/kg), the AUC was 596 ng·h/mL and the half-life was 2.05 h. In data set [1] (po), the bioavailability turned out to be 56%. For the same molecule, in data set [1] (po, p.o. (i.g.), 10 mg/kg), the AUC was determined as 1670 ng·h/mL and the Cmax is 415 ng/mL.

Consider `Cc1c(NC(=O)c2nc3c(s2)CNCC3)cccc1-c1cccc(-c2nc3cc(CN4CC[C@@H](C(=O)O)C4)cnc3o2)c1C` [Example 18, (R)-1-((2-(2,2′-dimethyl-3′-(4,5,6,7-tetrahydrothiazolo[5,4-c]pyridine-2-carboxamido)-[1,1′-biphenyl]-3-yl)oxazolo[5,4-b]pyridin-6-yl)methyl)pyrrolidine-3-carboxylic acid trifluoroacetate], for which, in data set [1] (iv, i.v., 2 mg/kg), the AUC came out at 578 ng·h/mL and the half-life is 2.42 h. The bioavailability in data set [1] (po) is 53%. In data set [1] (po, p.o. (i.g.), 10 mg/kg), the AUC worked out at 1530 ng·h/mL and the Cmax is 365 ng/mL.

Consider `Cc1c(NC(=O)c2nc3c(n2C)CCN(CC(C)O)C3)cccc1-c1cccc(-c2nc3cc(CN4CC[C@@H](C(=O)O)C4)ncc3o2)c1C` (stereo partly drawn) [Example 29, (R)-1-((2-(3′-(5-(2-hydroxypropyl)-1-methyl-4,5,6,7-tetrahydro-1H-imidazo[4,5-c]pyridine-2-carboxamido)-2,2′-dimethyl-[1,1′-biphenyl]-3-yl)oxazolo[5,4-c]pyridin-6-yl)methyl)pyrrolidine-3-carboxylic acid], for which, in data set [1] (iv, i.v., 2 mg/kg), the AUC is 617 ng·h/mL and the half-life was 2.14 h. Further, in data set [1] (po), the bioavailability was 48%. Moreover, in data set [1] (po, p.o. (i.g.), 10 mg/kg), the AUC was found to be 1480 ng·h/mL and the Cmax was 405 ng/mL.

With `Cc1c(NC(=O)c2nc3c(s2)CN(C)CC3)cncc1-c1cccc(-c2nc3cc(CN4CC[C@@H](C(=O)O)C4)cc(Cl)c3o2)c1C` [Example 8, (R)-1-((7-chloro-2-(2-methyl-3-(4-methyl-5-(5-methyl-4,5,6,7-tetrahydrothiazolo[5,4-c]pyridine-2-carboxamido)pyridin-3-yl)phenyl)benzo[d]oxazol-5-yl)methyl)pyrrolidine-3-carboxylic acid], in data set [1] (iv, i.v., 2 mg/kg), the AUC came out at 601 ng·h/mL and the half-life is 1.56 h. In addition, in data set [1] (po), the bioavailability was found to be 55%. In data set [1] (po, p.o. (i.g.), 10 mg/kg), the AUC is 1650 ng·h/mL and the Cmax came to 402 ng/mL.

Regarding `Cc1c(NC(=O)c2nc3c(n2C)CCN(C[C@H](C)O)C3)cncc1-c1cccc(NC(=O)c2nc3c(n2C)CCN(C[C@H](C)O)C3)c1Cl` [Example 26, N-(5-(2-chloro-3-(5-((S)-2-hydroxypropyl)-1-methyl-4,5,6,7-tetrahydro-1H-imidazo[4,5-c]pyridine-2-carboxamido)phenyl)-4-methylpyridin-3-yl)-5-((S)-2-hydroxypropyl)-1-methyl-4,5,6,7-tetrahydro-1H-imidazo[4,5-c]pyridine-2-carboxamide], the LD50 at 14 days in data set [2] is over 1000 mg/kg. In addition, in data set [3], the “body weight and behavior compared with control group” value is “no abnormal body weight or behavior”.

In general, bioavailability refers to the share of a dose that reaches the circulation, judged against a reference dose that is usually intravenous. What is called LD50 is the dose at which mortality reaches 50%.

The record behind these values is patent publication US20230111910A1, “PD-1/PD-L1 INHIBITOR, PREPARATION METHOD THEREFOR, AND USE THEREOF” (SHANGHAI SYNERGY PHARMACEUTICAL SCIENCES CO., LTD., priority 2020, published 2023).
